Reference: patent publication US20250051758A1, “FolA Selection Assay to Identify Strains with Increased Soluble Target Protein Expression” (ABSCI CORPORATION, priority 2021, published 2025)

System: E. coli harboring plasmid encoding mCherry-FolA fusion under the control of pBAD promoter

| SMILES | Inhibition of growth by sulfamethoxazole | Sulfamethoxazole concentration at which sensitivity to trimethoprim is restored | Resistance of cells to trimethoprim | Synergy of trimethoprim with sulfamethoxazole |
| --- | --- | --- | --- | --- |
| Cc1cc(NS(=O)(=O)c2ccc(N)cc2)no1 [sulfamethoxazole] | did not inhibit growth | > 2 µg/mL | – | – |
| COc1cc(Cc2cnc(N)nc2N)cc(OC)c1OC [trimethoprim] | – | – | highly resistant | strong synergy |
